# Measured values from US8937072B2, “Substituted cyanoaniline compounds, preparation and use thereof” (Sinochem Corporation, priority 2011, dated 2015).
# Like-named read-outs stand apart in the source and are kept apart here.
# Assays:
# cucumber downy mildew = experiment: Protectant activity in vivo (whole plant) against cucumber downy mildew; settings: for pest or weed control at 12.5 µg/mL / pest or weed control at 25 µg/mL / pest or weed control at 50 µg/mL / pest or weed control at 100 µg/mL / pest or weed control at 400 µg/mL: Cucumis sativus, 168 h; for pest or weed control at 25 µg/mL / pest or weed control at 50 µg/mL / pest or weed control at 100 µg/mL: read-out: the protectant activity (%) against cucumber downy mildew
# In short: (§1)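 Whole plants sprayed with test solution, water plus 0.1% Tween-80 and no more than 5% solvent, then inoculated with the pathogen after 24 h. Plants held in humidity chamber or directly in greenhouse depending on fungus. Disease control scored by eye at about 7 days.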
# wheat powdery mildew = experiment: Protectant activity in vivo (whole plant) against wheat powdery mildew; settings: for pest or weed control at 400 µg/mL: Triticum aestivum, 168 h
# Protocol: The method is as followed: The whole plant is used in this test. The compound is dissolved in a proper solvent to get mother solution. The proper solvent is selected from acetone, methanol, DMF and so on according to their dissolving capability to the sample. The volume rate of solvent and testing solution (v/v) is equal to or less than 5%. The mother solution is diluted with water containing 0.1% tween-80 to get the testing solution whose concentration is designed. The testing solution is sprayed to the host plant by a special plant sprayer. The plant is inoculated with fungus after 24 hours. According to the infecting characteristic of fungus, the plant is stored in a humidity chamber and then transferred into greenhouse after infection is finished. And the other plants are placed in greenhouse directly. The activity of compound is obtained by eyeballing after 7 days in common.
# rice blast = experiment: microbe, parasite or virus in culture; assay type: cell-based; settings: for the inhibition rate against rice blast (%) 0.03 mg/L: Table 21, 0.03 mg/L; for the inhibition rate against rice blast (%) 0.1 mg/L: Table 21, 0.1 mg/L; for the inhibition rate against rice blast (%) 0.3 mg/L: Table 21, 0.3 mg/L
# cucumber gray mold = experiment: Activity in vitro (96-well, High Through Put): inhibition rate against cucumber gray mold; assay type: cell-based; settings: for inhibition rate against cucumber gray mold / inhibition at 25 µg/mL: in vitro; for inhibition at 0.9 µg/mL / inhibition at 2.8 µg/mL / inhibition at 8.3 µg/mL: read-out: the inhibition rate against cucumber gray mold (%); for inhibition at 25 µg/mL: dose 25 mg/L
# In short: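 Scored visually at 24 hours relative to control, the readout is pathogen germination or growth. Test solutions used acetone, methanol or DMF as solvent and were mixed with pathogen suspension in a sterile high-throughput format at constant temperature.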
# corn rust = experiment: Protectant activity in vivo (whole plant) against corn rust
# In short: as §1
# [1] = Zea mays, 168 h, dose 400 mg/L, read-out: protectant activity against corn rust in vivo
# [2] = Zea mays, 168 h, 400 mg/L, read-out: the protectant activity (%) against corn rust
smiles,measurement,setting,value
N#Cc1c(F)c(F)c(C#N)c(Nc2ccc(C(F)(F)F)cc2Cl)c1F [Compound C-82],protectant activity against cucumber downy mildew in vivo,cucumber downy mildew; dose 400 mg/L,100%
same,protectant activity against wheat powdery mildew in vivo,wheat powdery mildew; dose 400 mg/L,100%
COc1c(Cl)c(Nc2c(Cl)cc([N+](=O)[O-])cc2Cl)c(C#N)c(Cl)c1C#N [Compound B-74],the inhibition rate against rice blast (%) 0.03 mg/L,rice blast,0%
same,the inhibition rate against rice blast (%) 0.1 mg/L,rice blast,50%
same,the inhibition rate against rice blast (%) 0.3 mg/L,rice blast,100%
same,the inhibition rate against cucumber gray mold (%),cucumber gray mold; 0.9 mg/L,80%
same,the inhibition rate against cucumber gray mold (%),cucumber gray mold; 2.8 mg/L,100%
same,the inhibition rate against cucumber gray mold (%),cucumber gray mold; 8.3 mg/L,100%
same,the protectant activity (%) against cucumber downy mildew,cucumber downy mildew; 25 mg/L,80%
same,the protectant activity (%) against cucumber downy mildew,cucumber downy mildew; 50 mg/L,98%
same,the protectant activity (%) against cucumber downy mildew,cucumber downy mildew; 100 mg/L,100%
same,protectant activity against cucumber downy mildew in vivo,cucumber downy mildew; dose 50 mg/L,98%
same,protectant activity against cucumber downy mildew in vivo,cucumber downy mildew; dose 100 mg/L,100%
same,protectant activity against cucumber downy mildew in vivo,cucumber downy mildew; dose 400 mg/L,100%
same,the protectant activity (%) against corn rust,corn rust; 6.25 mg/L,40%
same,the protectant activity (%) against corn rust,corn rust; 25 mg/L,70%
same,the protectant activity (%) against corn rust,corn rust; 100 mg/L,95%
same,the protectant activity (%) against corn rust,corn rust; 400 mg/L,100%
same,protectant activity against corn rust in vivo,corn rust; dose 400 mg/L,100%
N#Cc1c(F)c(F)c(C#N)c(Nc2ccc(Cl)c(C(F)(F)F)c2)c1F [Compound C-91],protectant activity against wheat powdery mildew in vivo,wheat powdery mildew; dose 6.25 mg/L,70%
same,protectant activity against wheat powdery mildew in vivo,wheat powdery mildew; dose 100 mg/L,95%
same,protectant activity against wheat powdery mildew in vivo,wheat powdery mildew; dose 400 mg/L,100%
N#Cc1c(F)c(F)c(C#N)c(Nc2c(Cl)cc(C(F)(F)F)cc2Cl)c1F [Compound C-98],inhibition rate against cucumber gray mold,cucumber gray mold; dose 8.3 mg/L,80%
same,protectant activity against corn rust in vivo,corn rust; dose 400 mg/L,100%
same,protectant activity against wheat powdery mildew in vivo,wheat powdery mildew; dose 100 mg/L,80%
same,protectant activity against wheat powdery mildew in vivo,wheat powdery mildew; dose 400 mg/L,100%
N#Cc1c(Cl)c(Cl)c(Nc2nc(Cl)c(Cl)c(Cl)c2Cl)c(C#N)c1Cl [Compound B-128b],the inhibition rate against rice blast (%) 0.03 mg/L,rice blast,80%
same,the inhibition rate against rice blast (%) 0.1 mg/L,rice blast,80%
same,the inhibition rate against rice blast (%) 0.3 mg/L,rice blast,100%
same,protectant activity against cucumber downy mildew in vivo,cucumber downy mildew; dose 100 mg/L,100%
same,protectant activity against cucumber downy mildew in vivo,cucumber downy mildew; dose 400 mg/L,100%
same,protectant activity against corn rust in vivo,corn rust; dose 400 mg/L,100%
same,protectant activity against wheat powdery mildew in vivo,wheat powdery mildew; dose 400 mg/L,80%
COc1ccc(Nc2c(Cl)c(F)c(C#N)c(F)c2C#N)cc1 [KC20],inhibition at 0.3 µg/mL,cucumber gray mold; 0.3 mg/L,0%
same,inhibition at 0.9 µg/mL,cucumber gray mold; 0.9 mg/L,0%
same,inhibition at 2.8 µg/mL,cucumber gray mold; 2.8 mg/L,0%
same,inhibition at 8.3 µg/mL,cucumber gray mold; 8.3 mg/L,0%
same,inhibition at 25 µg/mL,cucumber gray mold,50%
same,pest or weed control at 12.5 µg/mL,cucumber downy mildew; 12.5 mg/L,0%
same,pest or weed control at 25 µg/mL,cucumber downy mildew; 25 mg/L,0%
same,pest or weed control at 50 µg/mL,cucumber downy mildew; 50 mg/L,0%
same,pest or weed control at 100 µg/mL,cucumber downy mildew; 100 mg/L,0%
same,pest or weed control at 400 µg/mL,cucumber downy mildew; dose 400 mg/L,0%
same,pest or weed control at 400 µg/mL,corn rust; [1],0%
same,pest or weed control at 400 µg/mL,wheat powdery mildew; dose 400 mg/L,0%
N#Cc1c(Cl)c(Cl)c(Nc2c(Cl)cc([N+](=O)[O-])cc2Cl)c(C#N)c1Cl [Compound B-54],the inhibition rate against rice blast (%) 0.03 mg/L,rice blast,0%
same,the inhibition rate against rice blast (%) 0.1 mg/L,rice blast,0%
same,the inhibition rate against rice blast (%) 0.3 mg/L,rice blast,100%
same,inhibition rate against rice blast,"rice blast; in vitro, dose 0.3 mg/L",80%
same,the inhibition rate against cucumber gray mold (%),cucumber gray mold; 0.3 mg/L,100%
same,the inhibition rate against cucumber gray mold (%),cucumber gray mold; 0.9 mg/L,100%
same,the inhibition rate against cucumber gray mold (%),cucumber gray mold; 2.8 mg/L,100%
same,the inhibition rate against cucumber gray mold (%),cucumber gray mold; 8.3 mg/L,100%
same,inhibition rate against cucumber gray mold,cucumber gray mold; dose 0.3 mg/L,80%
same,the protectant activity (%) against cucumber downy mildew,cucumber downy mildew; 25 mg/L,75%
same,the protectant activity (%) against cucumber downy mildew,cucumber downy mildew; 50 mg/L,100%
same,the protectant activity (%) against cucumber downy mildew,cucumber downy mildew; 100 mg/L,100%
same,protectant activity against cucumber downy mildew in vivo,cucumber downy mildew; dose 50 mg/L,100%
same,protectant activity against cucumber downy mildew in vivo,cucumber downy mildew; dose 100 mg/L,100%
same,protectant activity against cucumber downy mildew in vivo,cucumber downy mildew; dose 400 mg/L,100%
same,the protectant activity (%) against corn rust,corn rust; 6.25 mg/L,65%
same,the protectant activity (%) against corn rust,corn rust; 25 mg/L,80%
same,the protectant activity (%) against corn rust,corn rust; 100 mg/L,90%
same,the protectant activity (%) against corn rust,corn rust; 400 mg/L,100%
same,protectant activity against corn rust in vivo,corn rust; dose 400 mg/L,100%
N#Cc1c(F)c(F)c(Nc2ccccc2)c(F)c1C#N [KC13],inhibition at 0.3 µg/mL,cucumber gray mold; 0.3 mg/L,0%
same,inhibition at 0.9 µg/mL,cucumber gray mold; 0.9 mg/L,0%
same,inhibition at 2.8 µg/mL,cucumber gray mold; 2.8 mg/L,0%
same,inhibition at 8.3 µg/mL,cucumber gray mold; 8.3 mg/L,0%
same,inhibition at 25 µg/mL,cucumber gray mold,0%
same,pest or weed control at 12.5 µg/mL,cucumber downy mildew; 12.5 mg/L,0%
same,pest or weed control at 25 µg/mL,cucumber downy mildew; 25 mg/L,0%
same,pest or weed control at 50 µg/mL,cucumber downy mildew; 50 mg/L,0%
same,pest or weed control at 100 µg/mL,cucumber downy mildew; 100 mg/L,0%
same,pest or weed control at 400 µg/mL,cucumber downy mildew; dose 400 mg/L,0%
same,pest or weed control at 6.25 µg/mL,"corn rust; Zea mays, 168 h, 6.25 mg/L",0%
same,pest or weed control at 25 µg/mL,"corn rust; Zea mays, 168 h, 25 mg/L",0%
same,pest or weed control at 100 µg/mL,"corn rust; Zea mays, 168 h, 100 mg/L",0%
same,pest or weed control at 400 µg/mL,corn rust; [2],0%
same,pest or weed control at 400 µg/mL,corn rust; [1],0%
same,pest or weed control at 400 µg/mL,wheat powdery mildew; dose 400 mg/L,0%
N#Cc1c(Cl)c(Cl)c(Cl)c(C#N)c1Cl [chlorothalonil],inhibition at 0.03 µg/mL,"rice blast; Pyricularia oryzae, read-out: the inhibition rate against rice blast (%) 0.03 mg/L",0%
same,inhibition at 0.1 µg/mL,"rice blast; Pyricularia oryzae, read-out: the inhibition rate against rice blast (%) 0.1 mg/L",30%
same,inhibition at 0.3 µg/mL,"rice blast; Pyricularia oryzae, read-out: the inhibition rate against rice blast (%) 0.3 mg/L",100%
same,inhibition at 0.3 µg/mL,cucumber gray mold; 0.3 mg/L,80%
same,inhibition at 0.9 µg/mL,cucumber gray mold; 0.9 mg/L,100%
same,inhibition at 2.8 µg/mL,cucumber gray mold; 2.8 mg/L,100%
same,inhibition at 8.3 µg/mL,cucumber gray mold; 8.3 mg/L,100%
same,pest or weed control at 25 µg/mL,cucumber downy mildew; 25 mg/L,30%
same,pest or weed control at 50 µg/mL,cucumber downy mildew; 50 mg/L,80%
same,pest or weed control at 100 µg/mL,cucumber downy mildew; 100 mg/L,100%
same,pest or weed control at 400 µg/mL,corn rust; [2],50%
N#Cc1cc([N+](=O)[O-])cc(Br)c1Nc1c(Cl)c(Cl)c(C#N)c(C#N)c1Cl [Compound A-42],protectant activity against wheat powdery mildew in vivo,wheat powdery mildew; dose 100 mg/L,80%
same,protectant activity against wheat powdery mildew in vivo,wheat powdery mildew; dose 400 mg/L,98%
N#Cc1c(Cl)c(Cl)c(C#N)c(Nc2c(Cl)cc(C(F)(F)F)cc2Cl)c1Cl [Compound C-50],the inhibition rate against rice blast (%) 0.03 mg/L,rice blast,100%
same,the inhibition rate against rice blast (%) 0.1 mg/L,rice blast,100%
same,the inhibition rate against rice blast (%) 0.3 mg/L,rice blast,100%
same,protectant activity against corn rust in vivo,corn rust; dose 400 mg/L,100%
same,protectant activity against wheat powdery mildew in vivo,wheat powdery mildew; dose 400 mg/L,100%
Cc1cc([N+](=O)[O-])cc(Cl)c1Nc1c(Cl)c(Cl)c(C#N)c(Cl)c1C#N [Compound B-58],the inhibition rate against rice blast (%) 0.03 mg/L,rice blast,0%
same,the inhibition rate against rice blast (%) 0.1 mg/L,rice blast,50%
same,the inhibition rate against rice blast (%) 0.3 mg/L,rice blast,100%
same,the inhibition rate against cucumber gray mold (%),cucumber gray mold; 0.3 mg/L,80%
same,the inhibition rate against cucumber gray mold (%),cucumber gray mold; 0.9 mg/L,100%
same,the inhibition rate against cucumber gray mold (%),cucumber gray mold; 2.8 mg/L,100%
same,the inhibition rate against cucumber gray mold (%),cucumber gray mold; 8.3 mg/L,100%
same,inhibition rate against cucumber gray mold,cucumber gray mold; dose 0.3 mg/L,80%
same,the protectant activity (%) against cucumber downy mildew,cucumber downy mildew; 12.5 mg/L,98%
same,the protectant activity (%) against cucumber downy mildew,cucumber downy mildew; 25 mg/L,98%
same,the protectant activity (%) against cucumber downy mildew,cucumber downy mildew; 50 mg/L,100%
same,the protectant activity (%) against cucumber downy mildew,cucumber downy mildew; 100 mg/L,100%
same,protectant activity against cucumber downy mildew in vivo,cucumber downy mildew; dose 12.5 mg/L,98%
same,protectant activity against cucumber downy mildew in vivo,cucumber downy mildew; dose 50 mg/L,100%
same,protectant activity against cucumber downy mildew in vivo,cucumber downy mildew; dose 100 mg/L,100%
same,protectant activity against cucumber downy mildew in vivo,cucumber downy mildew; dose 400 mg/L,100%
same,protectant activity against corn rust in vivo,corn rust; dose 400 mg/L,100%
